In patent US20240165137A1, “METHODS FOR IMPROVING MUSCLE STRENGTH AND MOBILITY” (Intrinsic Medicine, Inc., priority 2020, published 2024):

Test system: CEBPB expression in LPS-stimulated THP-1 cells
Assay: Nascent RNA sequencing of LPS-stimulated THP-1 cells (CEBPB expression)
Format: cell-based
Settings: 10 ng/mL LPS and 250 μM 2′FL
Method: THP-1 Cells were treated with 10 ng/mL LPS or 10 ng/mL LPS and 250 μM 2′FL and extracted for nascent RNAs at 30 min and 24 hours. The nascent RNAs were sequenced and analyzed as described in Azofeifa et al. (2018), Genome Res. 28: 334-344; the contents of which are expressly incorporated by reference herein.

`CC1O[C@@H](OC2[C@H](O[C@H]3C(O)C(O)C(O)O[C@H]3CO)OC(CO)[C@H](O)[C@@H]2O)C(O)[C@@H](O)[C@@H]1O` (stereo partly drawn) [2′FL, 2′-fucosyllactose] was tested, and the “CEBPB maximum enrichment score (nascent RNAs, 2′FL+LPS versus LPS alone)” value (30 min) was 40, the “CEBPB maximum enrichment score (nascent RNAs, 2′FL+LPS versus LPS alone)” value (24 hours) was 20 and the “CEBPB expression (nascent RNAs, 2′FL+LPS versus LPS alone)” value (both the 30 min and 24 hour time points) was “enhanced and upregulated”.
